# Read-outs that look alike come from different tables or passages of the source.
# Experiments:
# [1] = Plasma pharmacokinetics studies on rats; conditions: for Cmax: read-out: Cmax (iv); for F (%) (po): po dosing 2 mg/kg
# Method: In vivo pharmacokinetics (PK) studies were conducted for selected compounds during the whole optimization at various stages in order to identify structural elements that are favorable for in vivo applications, and/or to evaluate the feasibility of optimized Limk inhibitors for animal studies.
# [2] = target: P450 2C9 (Homo sapiens, UniProt P11712); assay: P450 inhibition at 10 μM; assay type: in vitro ADME
# Chain of P450 2C9 (P11712 whole entry): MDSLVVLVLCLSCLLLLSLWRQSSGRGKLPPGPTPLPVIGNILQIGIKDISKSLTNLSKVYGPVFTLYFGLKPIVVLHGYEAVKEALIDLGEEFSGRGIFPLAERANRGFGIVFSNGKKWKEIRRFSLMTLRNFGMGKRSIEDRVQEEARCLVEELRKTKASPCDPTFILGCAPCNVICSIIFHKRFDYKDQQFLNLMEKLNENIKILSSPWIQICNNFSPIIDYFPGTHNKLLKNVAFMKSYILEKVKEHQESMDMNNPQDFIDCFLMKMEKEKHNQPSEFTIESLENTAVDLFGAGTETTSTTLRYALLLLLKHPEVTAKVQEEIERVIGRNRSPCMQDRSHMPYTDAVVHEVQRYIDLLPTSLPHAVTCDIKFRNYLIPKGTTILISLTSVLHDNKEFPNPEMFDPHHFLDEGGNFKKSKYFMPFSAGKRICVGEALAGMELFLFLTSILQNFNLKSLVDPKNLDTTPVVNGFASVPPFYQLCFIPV
# [3] = target: JNK3 (Homo sapiens, UniProt P53779); assay: JNK3 biochemical counter-screen; conditions: Table 6; read-out: Biochemical Inhibition IC50 (nM) JNK3
# Chain of JNK3 (P53779 whole entry, species assumed): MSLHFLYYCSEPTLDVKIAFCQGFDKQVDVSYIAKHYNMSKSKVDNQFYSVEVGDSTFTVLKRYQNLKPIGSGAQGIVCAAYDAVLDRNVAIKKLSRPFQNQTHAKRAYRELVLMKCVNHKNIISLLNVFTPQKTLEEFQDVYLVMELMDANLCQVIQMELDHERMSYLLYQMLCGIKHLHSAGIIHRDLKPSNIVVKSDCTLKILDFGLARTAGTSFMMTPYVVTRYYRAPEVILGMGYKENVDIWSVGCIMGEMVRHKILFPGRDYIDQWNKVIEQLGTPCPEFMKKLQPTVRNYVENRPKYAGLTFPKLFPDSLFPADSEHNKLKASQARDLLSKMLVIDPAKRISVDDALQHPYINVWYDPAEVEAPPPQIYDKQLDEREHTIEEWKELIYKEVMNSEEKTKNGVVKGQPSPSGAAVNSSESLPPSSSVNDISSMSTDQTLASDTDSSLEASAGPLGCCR
# [4] = Microsomal stability, rat liver microsomes; assay type: in vitro ADME
# [5] = Microsomal stability, human liver microsomes; assay type: in vitro ADME
# [6] = system: cofilin phosphorylation in A7r5 cells; assay: In-cell Western assay of cofilin phosphorylation in A7r5 cells; assay type: cell-based
# Method: A7r5 (15,000 cells/well) were plated in a clear-bottomed Packard View black 96-well plate in 100 μl of 10% FBS DMEM:F12 medium and were allowed to attach overnight. The next day, the cells were serum starved in 1% FBS DMEM medium for 2 hr and then treated with the compounds for 1 hr. […] Next day, they were washed twice with PBS-0.1% Tween 20 (PBST) washing solution for 5 min each at room temperature on the orbital shaker, followed by one wash with Licor Blocking Buffer containing 0.05% Tween-20 for 5 min on the shaker at RT. The cells were then incubated with secondary antibody goat anti-rabbit IR800 (1:500 dilution) for 1 hr at RT in the dark (covered the plate with foil) in Licor blocking buffer-containing Tween-20. Following this, cells were washed twice with PBST for 5 min each at room temperature and then once with Licor blocking buffer-containing 0.05% Tween-20. The wells were then incubated with ToPro 3 stain (nucleic acid staining), diluted 1:4000 in Licor blocking buffer or Licor blocking buffer with 0.05% Tween-20 for 30 min at room temperature in the dark. Finally the plates were washed twice with PBS and analyzed using the Odyssey LICOR Infrared Scanner.
# [7] = target: P450 3A4 (Homo sapiens, UniProt P08684); assay: P450 inhibition at 10 μM; assay type: in vitro ADME
# Chain of P450 3A4 (P08684 whole entry): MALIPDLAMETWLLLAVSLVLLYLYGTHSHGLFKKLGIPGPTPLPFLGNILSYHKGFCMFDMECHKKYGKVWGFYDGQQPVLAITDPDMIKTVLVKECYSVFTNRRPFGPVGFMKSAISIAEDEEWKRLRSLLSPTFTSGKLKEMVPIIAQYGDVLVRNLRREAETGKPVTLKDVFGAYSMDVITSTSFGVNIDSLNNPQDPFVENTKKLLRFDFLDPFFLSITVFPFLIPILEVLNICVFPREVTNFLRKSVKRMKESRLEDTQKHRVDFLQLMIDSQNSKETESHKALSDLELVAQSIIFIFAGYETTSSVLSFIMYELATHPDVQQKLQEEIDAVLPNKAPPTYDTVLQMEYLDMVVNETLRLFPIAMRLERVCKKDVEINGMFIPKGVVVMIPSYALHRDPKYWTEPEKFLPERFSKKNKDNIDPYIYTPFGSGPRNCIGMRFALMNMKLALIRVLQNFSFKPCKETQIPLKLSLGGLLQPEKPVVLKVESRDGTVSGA
# [8] = target: ROCK-I (Homo sapiens, UniProt Q13464); assay: ROCK-I biochemical counter-screen; conditions: Table 6; read-out: Biochemical Inhibition IC50 (nM) ROCK-I
# Chain of ROCK-I (Q13464 whole entry, species assumed): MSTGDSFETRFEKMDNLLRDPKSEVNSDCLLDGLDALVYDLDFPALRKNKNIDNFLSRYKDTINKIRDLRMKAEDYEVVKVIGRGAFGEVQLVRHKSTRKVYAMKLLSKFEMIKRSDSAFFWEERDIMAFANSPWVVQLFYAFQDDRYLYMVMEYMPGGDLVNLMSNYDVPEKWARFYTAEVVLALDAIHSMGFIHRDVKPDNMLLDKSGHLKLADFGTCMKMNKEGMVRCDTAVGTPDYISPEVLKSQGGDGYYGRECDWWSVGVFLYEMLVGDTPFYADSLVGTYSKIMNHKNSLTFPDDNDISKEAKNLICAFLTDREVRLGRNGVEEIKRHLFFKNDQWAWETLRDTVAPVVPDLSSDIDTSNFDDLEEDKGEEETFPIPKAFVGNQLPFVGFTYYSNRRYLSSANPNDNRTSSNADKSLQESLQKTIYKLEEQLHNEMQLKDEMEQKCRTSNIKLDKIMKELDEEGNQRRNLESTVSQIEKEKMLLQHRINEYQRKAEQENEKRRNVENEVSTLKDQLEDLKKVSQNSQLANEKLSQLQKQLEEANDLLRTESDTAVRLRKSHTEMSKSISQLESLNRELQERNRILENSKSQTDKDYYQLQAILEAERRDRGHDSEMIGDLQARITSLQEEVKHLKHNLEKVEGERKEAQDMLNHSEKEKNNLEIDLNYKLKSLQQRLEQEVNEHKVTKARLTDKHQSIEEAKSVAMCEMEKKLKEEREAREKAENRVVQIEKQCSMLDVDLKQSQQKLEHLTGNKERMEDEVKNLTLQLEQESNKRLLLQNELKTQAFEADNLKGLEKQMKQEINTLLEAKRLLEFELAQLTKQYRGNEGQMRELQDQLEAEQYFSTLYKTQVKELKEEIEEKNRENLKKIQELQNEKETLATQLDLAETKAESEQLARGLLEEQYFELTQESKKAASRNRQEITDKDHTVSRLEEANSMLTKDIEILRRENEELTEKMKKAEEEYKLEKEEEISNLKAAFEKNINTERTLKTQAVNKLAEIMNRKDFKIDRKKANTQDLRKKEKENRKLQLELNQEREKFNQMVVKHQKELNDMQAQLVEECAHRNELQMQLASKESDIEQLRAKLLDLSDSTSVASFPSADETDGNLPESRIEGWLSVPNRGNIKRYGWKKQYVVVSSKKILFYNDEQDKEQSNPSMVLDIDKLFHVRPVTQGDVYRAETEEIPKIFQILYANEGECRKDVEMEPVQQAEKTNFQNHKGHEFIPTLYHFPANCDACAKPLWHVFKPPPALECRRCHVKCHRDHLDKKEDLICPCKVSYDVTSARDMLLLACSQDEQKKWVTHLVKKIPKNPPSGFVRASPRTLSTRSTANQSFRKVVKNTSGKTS
# [9] = target: ROCK-II (Homo sapiens, UniProt O75116); assay: ROCK-II biochemical counter-screen
# Chain of ROCK-II (O75116 whole entry, species assumed): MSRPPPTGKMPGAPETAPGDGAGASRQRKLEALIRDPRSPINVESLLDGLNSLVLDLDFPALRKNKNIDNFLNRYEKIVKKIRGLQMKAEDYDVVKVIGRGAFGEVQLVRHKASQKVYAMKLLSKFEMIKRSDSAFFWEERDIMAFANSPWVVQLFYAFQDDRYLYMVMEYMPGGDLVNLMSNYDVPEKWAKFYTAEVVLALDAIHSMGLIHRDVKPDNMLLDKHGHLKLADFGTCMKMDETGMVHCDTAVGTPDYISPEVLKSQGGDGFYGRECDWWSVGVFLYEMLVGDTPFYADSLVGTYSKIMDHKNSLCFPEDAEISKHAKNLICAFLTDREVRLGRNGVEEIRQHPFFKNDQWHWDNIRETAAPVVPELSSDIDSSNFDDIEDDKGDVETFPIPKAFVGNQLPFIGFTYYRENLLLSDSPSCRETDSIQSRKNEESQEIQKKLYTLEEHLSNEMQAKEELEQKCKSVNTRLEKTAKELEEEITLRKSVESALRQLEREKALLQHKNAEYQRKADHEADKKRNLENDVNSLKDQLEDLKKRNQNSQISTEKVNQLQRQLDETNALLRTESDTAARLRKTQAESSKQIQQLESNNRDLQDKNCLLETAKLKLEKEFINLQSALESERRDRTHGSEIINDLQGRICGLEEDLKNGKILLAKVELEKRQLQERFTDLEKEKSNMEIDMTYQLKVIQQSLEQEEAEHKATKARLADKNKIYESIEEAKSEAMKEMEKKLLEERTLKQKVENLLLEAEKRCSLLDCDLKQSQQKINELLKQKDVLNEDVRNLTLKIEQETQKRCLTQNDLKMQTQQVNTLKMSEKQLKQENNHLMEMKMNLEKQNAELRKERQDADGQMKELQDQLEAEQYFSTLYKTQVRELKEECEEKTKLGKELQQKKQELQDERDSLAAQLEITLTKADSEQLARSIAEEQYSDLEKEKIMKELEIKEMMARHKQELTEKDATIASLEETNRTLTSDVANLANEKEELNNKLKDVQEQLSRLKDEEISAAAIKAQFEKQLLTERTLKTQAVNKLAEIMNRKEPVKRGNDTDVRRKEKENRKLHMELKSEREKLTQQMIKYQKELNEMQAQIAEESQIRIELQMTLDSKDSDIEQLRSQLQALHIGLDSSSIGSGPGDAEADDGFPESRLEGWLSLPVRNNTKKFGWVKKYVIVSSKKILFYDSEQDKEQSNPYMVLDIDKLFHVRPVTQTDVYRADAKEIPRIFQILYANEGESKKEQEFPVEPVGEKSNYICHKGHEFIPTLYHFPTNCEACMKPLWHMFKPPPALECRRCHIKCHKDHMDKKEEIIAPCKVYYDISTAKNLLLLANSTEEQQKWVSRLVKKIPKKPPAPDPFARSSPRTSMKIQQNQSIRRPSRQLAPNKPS
# [10] = system: p-cofilin in CEM-SS T cells; assay: Cofilin phosphorylation cell assay in CEM-SS T cell lines; assay type: cell-based; conditions: Homo sapiens
# Method: Cells were lysed in NuPAGE LDS Sample Buffer (Invitrogen) followed by sonication. Samples were heated at 90° C. for 10 minutes, separated by SDS-PAGE, and then transferred onto nitrocellulose membranes (Invitrogen). The membranes were washed in TBST for 3 minutes and then blocked for 30 minutes at room temperature with Starting Block blocking buffer (Pierce). […] The blots were washed three times for 15 minutes and scanned with Odyssey Infrared Imager (Li-cor Biosciences). The same blots were also stripped and reprobed with antibodies against GAPDH (Abcam) as a loading control.
# [11] = system: PC-3 cells; assay: In vitro migration (wound closure) assay in PC-3 cells; assay type: cell-based; conditions: Homo sapiens, PC-3, 24 h, read-out: inhibition of migration of PC-3 cells
# Method: PC3 cells were cultured to confluence at >90% in 6 well culture dishes in 10% FBS RPMI1640 media the day before the assay. Lines were drawn with a marker on the bottom of the dishes. Using a sterile 1 mL pipet tip, the dishes were scratched three separate wounds through the cells moving perpendicular to the line drawn in the step above. The cells were rinsed with PBS twice very gently and added the RPMI1640 media, and the dishes were taken pictures using phase contrast under Leica DMI3000B microscope.
# [12] = target: P450 2D6 (Homo sapiens, UniProt P10635); assay: P450 inhibition at 10 μM; assay type: in vitro ADME
# Chain of P450 2D6 (P10635 whole entry): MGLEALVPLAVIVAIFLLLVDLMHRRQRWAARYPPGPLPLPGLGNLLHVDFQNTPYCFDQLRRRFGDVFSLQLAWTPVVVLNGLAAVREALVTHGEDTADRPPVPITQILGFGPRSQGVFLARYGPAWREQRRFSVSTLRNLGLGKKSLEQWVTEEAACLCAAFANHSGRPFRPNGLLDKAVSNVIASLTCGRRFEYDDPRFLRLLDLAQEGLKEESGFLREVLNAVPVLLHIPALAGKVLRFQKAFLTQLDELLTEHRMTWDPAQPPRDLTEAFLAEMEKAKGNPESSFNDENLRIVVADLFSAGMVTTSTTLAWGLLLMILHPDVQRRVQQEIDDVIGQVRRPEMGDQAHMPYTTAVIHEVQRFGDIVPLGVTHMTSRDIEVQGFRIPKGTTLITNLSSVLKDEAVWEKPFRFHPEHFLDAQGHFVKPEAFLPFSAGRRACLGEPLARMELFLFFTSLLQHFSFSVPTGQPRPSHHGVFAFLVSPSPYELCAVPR
# [13] = target: Limk1 (Homo sapiens, UniProt P53667); assay: Limk1 biochemical assay (Reaction Biology, 10-dose IC50); set-up: His; purchased Reaction Biology Corporation; host or cells: insect cells
# Chain of Limk1 (P53667 285-638): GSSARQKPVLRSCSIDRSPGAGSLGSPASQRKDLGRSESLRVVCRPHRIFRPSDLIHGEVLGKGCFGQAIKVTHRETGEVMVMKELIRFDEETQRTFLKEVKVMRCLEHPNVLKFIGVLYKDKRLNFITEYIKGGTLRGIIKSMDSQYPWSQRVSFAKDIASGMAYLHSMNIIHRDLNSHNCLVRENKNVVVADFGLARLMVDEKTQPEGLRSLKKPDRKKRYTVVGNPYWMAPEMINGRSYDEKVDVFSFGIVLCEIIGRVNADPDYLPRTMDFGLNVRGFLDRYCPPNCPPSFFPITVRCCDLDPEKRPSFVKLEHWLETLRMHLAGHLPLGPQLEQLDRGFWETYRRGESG
# [14] = target: T1, P450 1A2 (Homo sapiens, UniProt P05177)
# T1 sequence (P05177 1-516): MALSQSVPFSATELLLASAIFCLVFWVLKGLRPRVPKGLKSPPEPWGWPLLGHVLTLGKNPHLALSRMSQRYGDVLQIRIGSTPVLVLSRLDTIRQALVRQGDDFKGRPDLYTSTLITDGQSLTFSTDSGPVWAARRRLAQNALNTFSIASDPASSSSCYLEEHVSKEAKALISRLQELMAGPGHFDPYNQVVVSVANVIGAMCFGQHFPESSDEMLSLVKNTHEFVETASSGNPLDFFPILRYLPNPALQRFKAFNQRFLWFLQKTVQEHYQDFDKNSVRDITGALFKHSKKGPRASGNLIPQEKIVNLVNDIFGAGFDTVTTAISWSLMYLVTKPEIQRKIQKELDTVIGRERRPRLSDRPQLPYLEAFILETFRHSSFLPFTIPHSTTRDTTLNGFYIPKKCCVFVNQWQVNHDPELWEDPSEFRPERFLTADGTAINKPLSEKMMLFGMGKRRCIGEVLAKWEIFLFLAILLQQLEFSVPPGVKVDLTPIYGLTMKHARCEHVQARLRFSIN
# [15] = system: PC-3 cells; assay: In vitro invasion assay in PC-3 cells; assay type: cell-based; conditions: Homo sapiens, 48 hours, compared to the control
# Method: Transwell chambers coated with GFR Matrigel (BD Biosciences) were used for measurement of cell invasion. The matrigel was solidified at 37° C. in a humidified incubator the day before the assay. PC3 cells (1×10^3 cells per well) were grown in serum-free RPMI1640 media in the upper side of the insert. The lower well was filled with RPMI 1640 supplemented with 10% FBS with a Limk inhibitor (1 μM). PC3 cells were incubated at 37° C. in a humidified atmosphere containing 5% CO2 for 48 h. Then transwell membrane was rinsed three times with PBS, and the cells were fixed in 2.5% EM grade glutaraldehyde for 15 min at room temperature (RT) with no shaking. After removing glutaraldehyde by aspirating, the cells were permeabilized with 0.5% Triton X-100 in PBS for 3 min at RT, and they were rinsed three times with PBS. Then, the cells were stained by Gill's hematoxylin No. 1 for 15 min at RT, and they were washed by distilled water for three times. To remove any residual stain, the cells were washed by acid alcohol for 3 minutes and then rinsed by distilled water twice. The cells were exposed with 0.04% NH4OH until a blue color is observed on the membrane and then rinsed by distilled water twice. The membranes were dried overnight, and the stained cells were visualized under Leica DMI3000B microscope.
# [16] = A7R5, A7r5 cells, read-out: Cofilin Phosphorylation In A7r5 Cells (IC50)
# [17] = Table 4, means of ≥2 experiments, read-out: IC50 (nM) ROCK-II
# [18] = A7R5, read-out: Cofilin Phosphorylation In A7r5 Cells (IC50, nM)
# [19] = Table 4, means of ≥2 experiments, read-out: IC50 (nM) Limk1
SMILES,"AUC (iv) ([1]; rats, iv dosing 1 mg/kg) [µM·h]","Cl (iv) ([1]; rats, iv dosing 1 mg/kg) [mL/min/kg]","T1/2 (iv) ([1]; rats, iv dosing 1 mg/kg) [h]","Cmax ([1]; rats, iv dosing 1 mg/kg) [µM]",P450 % inh. at 10 μM 2C9 [2] [%],IC50 [3] [nM],Microsomal Stability t1/2 (min) Rat ([4]; rat liver microsomes) [min],"IC50 [6, 16] [nM]",P450 % inh. at 10 μM 3A4 [7] [%],IC50 [8] [nM],"IC50 [9, 17] [nM]",inhibition at 1 µM [10] [%],F (%) (po) ([1]; rats),Microsomal Stability t1/2 (min) Rat [4] [min],"IC50 [6, 18] [nM]",P450 % inh. at 10 μM 2D6 [12] [%],"IC50 [13, 19] [nM]",P450 % inh. at 10 μM 1A2 [14],"Yd (iv) ([1]; rats, iv dosing 1 mg/kg) [L/kg]",IC50 ([9]; read-out: ROCK-II IC50) [nM],other results
"Cc1c[nH]c2ncnc(-c3ccc(NC(=O)N(CCO)c4ccc(Cl)cc4)cc3)c12 [Compound 18h, 1-(4-Chlorophenyl)-1-(2-hydroxyethyl)-3-(4-(5-methyl-7H-pyrrolo[2,3-d]pyrimidin-4-yl)phenyl)urea]",13.2,3.0,2.6,10.5,23,> 10000,73,~100,27,5920,4360,–,–,–,–,–,–,–,–,–,Microsomal Stability t1/2 (min) Human [5]: >120 min
"Cc1c[nH]c2ncnc(-c3ccc(NC(=O)N(CCN)c4ccc(Cl)cc4)cc3)c12 [Compound 18p, 1-(2-Aminoethyl)-1-(4-chlorophenyl)-3-(4-(5-methyl-7H-pyrrolo[2,3-d]pyrimidin-4-yl)phenyl)urea]",0.7,55.9,5.1,1.1,–,–,–,–,–,–,460,> 50,–,–,–,–,–,–,–,–,–
"Cc1c[nH]c2ncnc(-c3ccc(NC(=O)N(CCO)c4ccccc4Cl)cc3)c12 [Compound 18f, 1-(2-Chlorophenyl)-1-(2-hydroxyethyl)-3-(4-(5-methyl-7H-pyrrolo[2,3-d]pyrimidin-4-yl)phenyl)urea]",5.1,7.7,–,4.7,39,–,–,–,37,4390,3340,–,21,38,420,1,58,−4/39/1/37%,–,–,"T1/2 (iv) ([1]; rat, in vivo, iv, 1 mg/kg): 1.5 h; Yd (iv) ([1]; rat, in vivo, iv, 1 mg/kg): 0.7 L/kg; inhibition at 0.1 µM [11]: 13%; inhibition at 1 µM [11]: 76.1%; inhibition at 10 µM [11]: 81%; inhibition at 1 µM [15]: 83%"
"Cc1c[nH]c2ncnc(-c3ccc(NC(=O)N(CCO)c4cccc(Cl)c4)cc3)c12 [Compound 18g, 1-(3-Chlorophenyl)-1-(2-hydroxyethyl)-3-(4-(5-methyl-7H-pyrrolo[2,3-d]pyrimidin-4-yl)phenyl)urea]",–,–,–,–,31,–,–,–,42,15000,11300,–,–,20,372,2,67,−19/31/2/42%,–,–,–
"COCCN(C(=O)Nc1ccc(-c2ncnc3[nH]c(C)c(C)c23)cc1F)c1ccc(Cl)cc1 [Compound 18x, 1-(4-Chlorophenyl)-3-(4-(5,6-dimethyl-7H-pyrrolo[2,3-d]pyrimidin-4-yl)-2-fluorophenyl)-1-(2-methoxyethyl)urea]",5.1,6.9,3.4,3.5,50,> 10000,13,250,52,–,–,> 50,–,–,–,15,–,–,1.2,> 20000,"IC50 ([13]; Table 5, means of ≥2 experiments, read-out: Biochemical IC50 (nM) Limk1): 8 nM; P450 % inh. at 10 μM 1A2 ([14]; 10 μM): 23%; IC50 ([9]; Table 5, means of ≥2 experiments, read-out: Biochemical IC50 (nM) ROCK-II): > 20000 nM"
"Cc1c[nH]c2ncnc(-c3ccc(NC(=O)N(CCN(C)C)c4ccc(Cl)cc4)cc3)c12 [Compound 18r, 1-(4-Chlorophenyl)-1-(2-(dimethylamino)ethyl)-3-(4-(5-methyl-7H-pyrrolo[2,3-d]pyrimidin-4-yl)phenyl)urea]",0.6,42.2,6.1,0.2,–,–,–,–,–,–,> 10000,> 50,0,–,–,–,20,–,17.1,> 10000,IC50 ([13]; read-out: Limk1 IC50): ~20 nM

# — patent publication US20190292189A1, “LIM KINASE INHIBITORS” (VIRONGY, LLC, priority 2016, published 2019)
